From ChEMBL document CHEMBL1151859, “Structure-activity relationship studies of a novel series of anthrax lethal factor inhibitors” (Bioorg Med Chem, 2009)

Target: T1, Lethal factor (Bacillus anthracis, UniProt P15917)
T1 sequence (P15917 whole entry): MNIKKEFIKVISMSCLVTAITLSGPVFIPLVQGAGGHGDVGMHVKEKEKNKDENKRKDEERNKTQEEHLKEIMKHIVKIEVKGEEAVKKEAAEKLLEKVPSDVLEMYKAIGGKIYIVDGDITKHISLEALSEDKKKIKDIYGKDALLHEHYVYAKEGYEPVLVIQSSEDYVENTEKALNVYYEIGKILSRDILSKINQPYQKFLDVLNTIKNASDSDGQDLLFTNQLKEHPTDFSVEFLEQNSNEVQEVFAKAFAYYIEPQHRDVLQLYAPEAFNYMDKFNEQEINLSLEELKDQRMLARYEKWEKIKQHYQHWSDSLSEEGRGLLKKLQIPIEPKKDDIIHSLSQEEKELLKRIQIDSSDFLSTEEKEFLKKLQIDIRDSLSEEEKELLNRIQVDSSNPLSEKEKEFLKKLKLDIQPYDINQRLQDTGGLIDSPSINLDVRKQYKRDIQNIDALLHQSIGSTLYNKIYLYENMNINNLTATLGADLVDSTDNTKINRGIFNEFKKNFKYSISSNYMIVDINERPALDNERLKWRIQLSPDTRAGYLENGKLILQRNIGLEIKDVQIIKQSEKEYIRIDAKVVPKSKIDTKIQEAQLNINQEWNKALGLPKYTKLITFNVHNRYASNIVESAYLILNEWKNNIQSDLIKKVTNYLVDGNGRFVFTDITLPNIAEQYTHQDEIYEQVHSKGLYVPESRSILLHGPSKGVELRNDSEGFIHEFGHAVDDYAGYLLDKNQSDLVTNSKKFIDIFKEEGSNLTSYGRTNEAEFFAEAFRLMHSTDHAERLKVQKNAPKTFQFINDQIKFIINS
Experiment: Inhibition of Bacillus anthracis lethal factor assessed as cleavage of MAPKK by fluorescence peptide cleavage assay

| Compound | IC50 | Ki |
| --- | --- | --- |
| O=S(=O)(Nc1sccc1-c1nc2ccccc2s1)c1ccc(S(=O)(=O)N2CCOCC2)cc1 | 17 µM | – |
| Cc1csc(NS(=O)(=O)c2cccc(-c3ccc(Cl)cc3)c2)c1-c1nc2ccccc2s1 | 22 µM | – |
| Cc1csc(NS(=O)(=O)c2cccc(Cl)c2C)c1-c1nc2ccccc2s1 | 100 µM | – |
| CS(=O)(=O)CS(=O)(=O)Nc1sccc1-c1nc2ccccc2s1 | 19 µM | – |
| COc1ccc(-c2cccc(S(=O)(=O)Nc3scc(C)c3-c3nc4ccccc4s3)c2)cc1 | 16 µM | – |
| Cc1csc(NS(=O)(=O)c2ccc(Cl)c(Cl)c2)c1-c1nc2ccccc2s1 | > 100 µM | – |
| O=S(=O)(Nc1sccc1-c1nc2ccccc2s1)c1ccc(Cl)c(Cl)c1 | 9 µM | – |
| O=S(=O)(Nc1sccc1-c1nc2ccccc2s1)c1ccc(-c2ccno2)s1 | 19 µM | – |
| Cc1cc(S(=O)(=O)Nc2sccc2-c2nc3ccccc3s2)ccc1F | 12 µM | – |
| O=S(=O)(Nc1sccc1-c1nc2ccccc2s1)c1ccc2nonc2c1 | 30 µM | – |
| Cc1csc(NS(=O)(=O)c2ccc(C(C)(C)C)cc2)c1-c1nc2ccccc2s1 | > 100 µM | – |
| O=S(=O)(NCCc1nc2ccccc2s1)c1ccc(-c2ccc(Cl)cc2)cc1 | > 50 µM | – |
| Cc1cc(C)n(-c2ccc(S(=O)(=O)Nc3sccc3-c3nc4ccccc4s3)cc2)n1 | 11 µM | – |
| O=S(=O)(Nc1sccc1-c1nc2ccccc2s1)c1ccc(-c2cnco2)cc1 | 13 µM | – |
| COc1ccc(-c2ccc(S(=O)(=O)Nc3oncc3-c3nc4ccccc4s3)cc2)cc1 | > 100 µM | – |
| O=S(=O)(Nc1sccc1-c1nc2ccccc2s1)c1ccc(Cl)c(C(F)(F)F)c1 | 10 µM | – |
| Cc1ccc(S(=O)(=O)Nc2scc(C)c2-c2nc3ccccc3s2)cc1Cl | 8.9 µM | – |
| CC(=O)Nc1ccc(S(=O)(=O)Nc2scc(C)c2-c2nc3ccccc3s2)cc1 | 14 µM | – |
| N#C/C(=C\c1ccc([N+](=O)[O-])s1)C(=O)c1ccco1 | 19 µM | 6.6 µM |
| O=S(=O)(Nc1sccc1-c1nc2ccccc2s1)c1ccco1 | > 50 µM | – |
| O=C(NCc1ccc(S(=O)(=O)Nc2sccc2-c2nc3ccccc3s2)s1)c1ccc(Cl)cc1 | 14 µM | – |
| O=S(=O)(Nc1sccc1-c1nc2ccccc2s1)c1ccc(F)cc1 | 16 µM | – |
| O=S(=O)(Nc1sccc1-c1nc2ccccc2s1)c1ccc(Br)cc1 | 8 µM | – |

| Compound | IC50 | Ki |
| --- | --- | --- |
| O=S(=O)(Nc1sccc1-c1nc2ccccc2s1)c1cccc(C(F)(F)F)c1 | 16 µM | – |
| Cc1csc(NS(=O)(=O)c2cc(Cl)c(Cl)cc2Cl)c1-c1nc2ccccc2s1 | 15 µM | – |
| Cc1nccc(-c2cccc(S(=O)(=O)Nc3sccc3-c3nc4ccccc4s3)c2)n1 | 12 µM | – |
| Cc1csc(NS(=O)(=O)c2ccc3ccccc3c2)c1-c1nc2ccccc2s1 | 12 µM | – |
| Cc1ccc(S(=O)(=O)Nc2sccc2-c2nc3ccccc3s2)cc1F | 11 µM | – |
| O=S(=O)(Nc1sccc1-c1nc2ccccc2s1)c1ccc(-c2ccc(Cl)c(Cl)c2)cc1 | 7.2 µM | – |
| Cc1csc(N(S(=O)(=O)c2cccc(C(F)(F)F)c2)S(=O)(=O)c2cccc(C(F)(F)F)c2)c1-c1nc2ccccc2s1 | > 100 µM | – |
| O=S(=O)(Nc1sccc1-c1nc2ccccc2s1)c1cccc(-c2ccccc2)c1 | 13 µM | – |
| Cc1ccc(S(=O)(=O)Nc2scc(C)c2-c2nc3ccccc3s2)cc1[N+](=O)[O-] | 48 µM | – |
| O=S(=O)(Nc1sccc1-c1nc2ccccc2s1)c1ccc2c(c1)CCO2 | 22 µM | – |
| COc1ccccc1Oc1ccc(S(=O)(=O)Nc2sccc2-c2nc3ccccc3s2)cc1 | > 50 µM | – |
| Cc1csc(NS(=O)(=O)c2cccc(Cl)c2)c1-c1nc2ccccc2s1 | > 100 µM | – |
| Cc1csc(NS(=O)(=O)c2ccc(F)cc2)c1-c1nc2ccccc2s1 | > 100 µM | – |
| O=S(=O)(Nc1ccccc1-c1nc2ccccc2s1)c1ccc(-c2ccc(Cl)cc2)cc1 | 100 µM | – |
| Cc1cc(S(=O)(=O)Nc2scc(C)c2-c2nc3ccccc3s2)ccc1F | 17 µM | – |
| COc1ccc(-c2ccc(S(=O)(=O)Nc3sccc3-c3nc4ccccc4s3)cc2)cc1OC | 9 µM | – |
| Cc1csc(NS(=O)(=O)c2cccc(OC(F)(F)F)c2)c1-c1nc2ccccc2s1 | 11 µM | – |
| Cc1csc(N)c1-c1nc2ccccc2s1 | > 100 µM | – |
| COc1ccc(S(=O)(=O)Nc2scc(C)c2-c2nc3ccccc3s2)cc1 | 46 µM | – |
| Cc1csc(NS(=O)(=O)c2ccc(-c3ccccc3)cc2)c1-c1nc2ccccc2s1 | 17 µM | – |
| O=S(=O)(Nc1sccc1-c1nc2ccccc2s1)c1ccc(F)c(Cl)c1 | 13 µM | – |
| Cc1c(S(=O)(=O)Nc2sccc2-c2nc3ccccc3s2)cnn1-c1ccccc1 | > 50 µM | – |
| O=S(=O)(Nc1sccc1-c1nc2ccccc2s1)c1ccc(Br)c(Cl)c1 | 4.5 µM | – |

| Compound | IC50 | Ki |
| --- | --- | --- |
| Cc1nnc(-c2cccc(S(=O)(=O)Nc3sccc3-c3nc4ccccc4s3)c2)o1 | 25 µM | – |
| CC(=O)Nc1ccc(S(=O)(=O)Nc2sccc2-c2nc3ccccc3s2)cc1 | 24 µM | – |
| O=S(=O)(Nc1sccc1-c1nc2ccccc2s1)c1ccccc1 | 39 µM | – |
| Cc1ccc(S(=O)(=O)Nc2sccc2-c2nc3ccccc3s2)cc1 | 13 µM | – |
| COc1ccc(S(=O)(=O)Nc2scc(C)c2-c2nc3ccccc3s2)cc1OC | 34 µM | – |
| O=S(=O)(Nc1sccc1-c1nc2ccccc2s1)c1ccc(Cl)cc1F | 18 µM | – |
| CN1CCOc2cc(S(=O)(=O)Nc3sccc3-c3nc4ccccc4s3)ccc21 | 23 µM | – |
| Cc1csc(NS(=O)(=O)c2ccc(Cl)cc2F)c1-c1nc2ccccc2s1 | 19 µM | – |
| O=S(=O)(Nc1sccc1-c1nc2ccccc2s1)c1ccccc1C(F)(F)F | 9.3 µM | – |
| COc1ccc(S(=O)(=O)Nc2sccc2-c2nc3ccccc3s2)cc1OC | 19 µM | – |
| O=S(=O)(Nc1sccc1-c1nc2ccccc2s1)c1ccc2ccccc2c1 | 8 µM | – |
| Cc1c(Cl)cccc1S(=O)(=O)Nc1sccc1-c1nc2ccccc2s1 | > 50 µM | – |
| Cc1ccc(S(=O)(=O)Nc2sccc2-c2nc3ccccc3s2)cc1[N+](=O)[O-] | 10 µM | – |
| COc1cccc(S(=O)(=O)Nc2scc(C)c2-c2nc3ccccc3s2)c1 | 11 µM | – |
| O=S(=O)(Nc1sccc1-c1nc2ccccc2s1)c1ccc(OC(F)(F)F)cc1 | 9.6 µM | – |
| Nc1sccc1-c1nc2ccccc2s1 | > 100 µM | – |
| O=S(=O)(Nc1sccc1-c1nc2ccccc2s1)c1ccc(C(F)(F)F)cc1 | 11 µM | – |
| Cc1csc(NS(=O)(=O)c2ccccc2C(F)(F)F)c1-c1nc2ccccc2s1 | > 100 µM | – |
| O=S(=O)(Nc1sccc1-c1nc2ccccc2s1)c1ccc(Oc2ccccc2)nc1 | 43 µM | – |
| CC(C)(C)c1ccc(S(=O)(=O)Nc2sccc2-c2nc3ccccc3s2)cc1 | 13 µM | – |
| Cc1c(S(=O)(=O)Nc2sccc2-c2nc3ccccc3s2)sc2ccccc12 | 10 µM | – |
| Cc1csc(N(S(=O)(=O)c2ccc(OC(F)(F)F)cc2)S(=O)(=O)c2ccc(OC(F)(F)F)cc2)c1-c1nc2ccccc2s1 | > 100 µM | – |
| O=S(=O)(Nc1nc2ccccc2s1)c1ccc(-c2ccc(Cl)cc2)cc1 | > 50 µM | – |

| Compound | IC50 | Ki |
| --- | --- | --- |
| Cc1ccc(S(=O)(=O)Nc2scc(C)c2-c2nc3ccccc3s2)cc1F | 35 µM | – |
| Cc1csc(NS(=O)(=O)c2ccc(-c3ccc(Cl)cc3)cc2)c1-c1nc2ccccc2s1 | 12 µM | – |
| Cc1csc(NS(=O)(=O)c2cccc(Cl)c2F)c1-c1nc2ccccc2s1 | 100 µM | – |
| Cc1csc(NS(=O)(=O)c2cccc(-c3ccccc3)c2)c1-c1nc2ccccc2s1 | 19 µM | – |
| COc1ccc(-c2ccc(S(=O)(=O)Nc3ccccc3-c3nc4ccccc4s3)cc2)cc1 | > 100 µM | – |
| O=S(=O)(Nc1sccc1-c1nc2ccccc2s1)c1cccc(-c2ccc(Cl)cc2)c1 | 18 µM | – |
| O=S(=O)(Nc1sccc1-c1nc2ccccc2s1)c1ccc(-c2ccc(OC(F)(F)F)cc2)cc1 | 3.9 µM | – |
| CN1CCOc2cc(S(=O)(=O)Nc3sccc3-c3nc4ccccc4s3)cnc21 | 27 µM | – |
| Cc1csc(N(S(=O)(=O)c2ccc(F)cc2)S(=O)(=O)c2ccc(F)cc2)c1-c1nc2ccccc2s1 | > 100 µM | – |
| COc1ccc(-c2ccc(S(=O)(=O)NCCc3nc4ccccc4s3)cc2)cc1 | > 50 µM | – |
| COc1ccc(-c2ccc(S(=O)(=O)Nc3sccc3-c3nc4ccccc4s3)cc2Cl)cc1 | 3 µM | – |
| Cc1ccc(S(=O)(=O)Nc2scc(C)c2-c2nc3ccccc3s2)cc1 | > 100 µM | – |
| O=S(=O)(Nc1sccc1-c1nc2ccccc2s1)c1ccc(-c2cncs2)cc1 | 12 µM | – |
| O=S(=O)(Nc1sccc1-c1nc2ccccc2s1)c1ccc2c(c1)OCCO2 | 27 µM | – |
| COc1ccc(-c2ccc(S(=O)(=O)Nc3nc4ccccc4s3)cc2)cc1 | > 50 µM | – |
| Cc1csc(NS(=O)(=O)c2ccc(Cl)c(C(F)(F)F)c2)c1-c1nc2ccccc2s1 | 11 µM | – |
| COc1ccc(S(=O)(=O)Nc2sccc2-c2nc3ccccc3s2)cc1 | 18 µM | – |
| Cc1csc(NS(=O)(=O)c2cccc(C(F)(F)F)c2)c1-c1nc2ccccc2s1 | 9.4 µM | – |
| Cc1ccc(S(=O)(=O)Nc2nc3ccccc3s2)cc1Cl | 28 µM | – |
| Cc1csc(NS(=O)(=O)c2ccccc2)c1-c1nc2ccccc2s1 | > 100 µM | – |
| O=S(=O)(Nc1sccc1-c1nc2ccccc2s1)c1cccc(Cl)c1F | 30 µM | – |
| O=S(=O)(Nc1sccc1-c1nc2ccccc2s1)c1ccc(-c2ccc(C(F)(F)F)cc2)cc1 | 8 µM | – |
